Test results reported in patent publication EP4509511A1, “SUBSTITUTED SPIRO-ISOXAZOLINYL LACTAMS, SALTS THEREOF AND THEIR USE AS HERBICIDALLY ACTIVE SUBSTANCES” (Bayer Aktiengesellschaft, priority 2023, dated 2025).

Legend:
POLCO = test: Herbicidal post-emergence action - Part II; format: in vivo, Polygonum convolvulus; conditions: 20 g/ha; Table E6
Source text: (§1) Seeds of mono- and dicotyledonous weed plants and crop plants were sown, in plastic or organic planting pots, in sandy loam, covered with soil and grown in a greenhouse under controlled growth conditions. 2 to 3 weeks after sowing, the test plants were sprayed in the single-leaf stage. The compounds according to the invention, formulated in form of wettable powders (WP) or as emulsifiable concentrates (EC), were sprayed onto the green plant parts as aqueous suspension or emulsion, with the addition of 0.5% of an additive, at an application rate of 600 1 of water/ha (converted). The test plants were placed in the greenhouse for ca. 3 weeks under optimum growth conditions, and then the effect of the preparations was assessed visually in comparison with untreated controls (herbicidal effect in percent (%): 100% effect = plants have died off, 0% effect = as control plants). Tables E1 to E10 below show the effects of selected compounds of the general formula (I) according to table 1 on various harmful plants and an application rate corresponding to 320 g/ha or below obtained by the experimental procedure mentioned above. Table E1a: post-emergence activity at 5g/ha against ABUTH in %

ABUTH [1] = test: Herbicidal post-emergence action - Part II; format: in vivo, Abutilon theophrasti
Source text: as §1

TRZAS = test: Post-emergence effects on crop plants; format: in vivo, Triticum aestivum; conditions: crop plant
Source text: as §1, with “F1” for “E1”, “F5” for “E10”, “crop” for “harmful”, “[…]:” for “E1a:”, “ZEAMX” for “ABUTH”

ECHCG [2] = test: Herbicidal post-emergence action - Part II; format: in vivo, Echinochloa crus-galli; conditions: 20 g/ha; Table E3a
Source text: as §1

SETVI = test: Herbicidal post-emergence action - Part II; format: in vivo, Setaria viridis
Source text: as §1

MATIN [3] = test: Herbicidal post-emergence action - Part II; format: in vivo, Matricaria inodora
Source text: as §1

VIOTR = test: Herbicidal post-emergence action - Part II; format: in vivo, Viola tricolor
Source text: as §1

PHBPU = test: Herbicidal post-emergence action - Part II; format: in vivo, Pharbitis purpurea
Source text: as §1

AMARE [4] = test: Herbicidal post-emergence action - Part II; format: in vivo, Amaranthus retroflexus
Source text: as §1

VERPE [5] = test: Herbicidal post-emergence action - Part II; format: in vivo, Veronica persica
Source text: as §1

ZEAMX = test: Post-emergence effects on crop plants; format: in vivo, Zea mays; conditions: crop plant
Source text: as §1, with “F1” for “E1”, “F5” for “E10”, “crop” for “harmful”, “[…]:” for “E1a:”, “ZEAMX” for “ABUTH”

MATIN [6] = test: Herbicidal post-emergence action - Part I; format: in vivo, Matricaria inodora; conditions: one-leaf stage, rated visually after about 3 weeks vs untreated controls
Method: (§2) Seeds of mono- and dicotyledonous weed plants were placed in plastic pots in sandy loam soil (doubly sown with in each case one species of mono- or dicotyledonous weed plants per pot), covered with soil and cultivated in a greenhouse under controlled growth conditions. 2 to 3 weeks after sowing, the test plants were treated at the one-leaf stage. The compounds of the invention, formulated in the form of wettable powders (WP) or as emulsion concentrates (EC), were applied onto the green parts of the plants as aqueous suspension or emulsion with addition of 0.5% additive at a water application rate of 600 liters per hectare (converted). After the test plants had been kept in the greenhouse under optimum growth conditions for about 3 weeks, the activity of the preparations was rated visually in comparison to untreated controls. For example, 100% activity = the plants have died, 0% activity = like control plants. Tables B1 to B12, below, show the effects of selected compounds of the general formula (I) according to table 1 on various harmful plants and an application rate corresponding to 1280 g/ha or below obtained by the experimental procedure mentioned above. Table B1a: post-emergence activity at 1280g/ha against ABUTH in %

AMARE [7] = test: Herbicidal post-emergence action - Part I; format: in vivo, Amaranthus retroflexus; conditions: one-leaf stage, rated visually after about 3 weeks vs untreated controls
Method: as §2

ABUTH [8] = test: Herbicidal post-emergence action - Part I; format: in vivo, Abutilon theophrasti; conditions: 320 g/ha, one-leaf stage, rated visually after about 3 weeks vs untreated controls
Method: as §2

ECHCG [9] = test: Herbicidal pre-emergence action - Part I; format: in vivo, Echinochloa crus-galli; conditions: 1280 g/ha, visual grading after ca. 3 weeks vs untreated controls
Source text: (§3) Seeds of mono- and dicotyledonous weed plants were sown in plastic pots (double sowings with one species of mono- and one species of dicotyledonous weed plants per pot), in sandy loam, and covered with soil. The compounds according to the invention, formulated in the form of wettable powders (WP) or as emulsifiable concentrates (EC), were applied to the surface of the covering soil as aqueous suspension or emulsion, with the addition of 0.5% of an additive, at an application rate of 600 1 of water per hectare (converted). Following treatment, the pots were placed in a greenhouse and kept under optimum growth conditions for the test plants. The visual grading of the damage to the test plants was carried out after ca. 3 weeks in comparison to untreated controls (herbicidaleffectinpercent(%):100%effect=plantshavediedoff,0%effect=ascontrolplants). [formula]
(§4) Tables A1 to A12, below, show the effects of selected compounds of the general formula (I) according to table 1 on various harmful plants and an application rate corresponding to 1280 g/ha or below obtained by the experimental procedure mentioned above. Table A1: pre-emergence activity at 1280g/ha against ABUTH in %

VERPE [10] = test: Herbicidal post-emergence action - Part I; format: in vivo, Veronica persica; conditions: 1280 g/ha, one-leaf stage, rated visually after about 3 weeks vs untreated controls
Method: as §2

KCHSC = test: Herbicidal post-emergence action - Part I; format: in vivo, Kochia scoparia; conditions: 1280 g/ha, one-leaf stage, rated visually after about 3 weeks vs untreated controls
Method: as §2

STEME [11] = test: Herbicidal pre-emergence action - Part I; format: in vivo, Stellaria media; conditions: 1280 g/ha, visual grading after ca. 3 weeks vs untreated controls
Source text: as §3, §4

STEME [12] = test: Herbicidal post-emergence action - Part I; format: in vivo, Stellaria media; conditions: one-leaf stage, rated visually after about 3 weeks vs untreated controls
Method: as §2

AMARE [13] = test: Herbicidal pre-emergence action - Part I; format: in vivo, Amaranthus retroflexus; conditions: 1280 g/ha, visual grading after ca. 3 weeks vs untreated controls
Source text: as §3, §4

SMILES | post-emergence activity against ABUTH (ABUTH [1]; 5 g/ha, Table E1a) | post-emergence activity against ABUTH (ABUTH [1]; 20 g/ha, Table E1b) | post-emergence activity against TRZAS (TRZAS; 5 g/ha, Table F2a) | post-emergence activity against TRZAS (TRZAS; 20 g/ha, Table F2b) | post-emergence activity against ECHCG (ECHCG [2]) | post-emergence activity against SETVI (SETVI; 20 g/ha, Table E7b) | post-emergence activity against MATIN (MATIN [3]; 20 g/ha, Table E4b) | post-emergence activity against VIOTR (VIOTR; 5 g/ha, Table E9a) | post-emergence activity against VIOTR (VIOTR; 20 g/ha, Table E9b) | post-emergence activity against PHBPU (PHBPU; 5 g/ha, Table E5a) | post-emergence activity against PHBPU (PHBPU; 20 g/ha, Table E5b) | post-emergence activity against AMARE (AMARE [4]; 5 g/ha, Table E2a) | post-emergence activity against AMARE (AMARE [4]; 20 g/ha, Table E2b) | post-emergence activity against VERPE (VERPE [5]; 5 g/ha, Table E8a) | post-emergence activity against VERPE (VERPE [5]; 20 g/ha, Table E8b) | post-emergence activity against ZEAMX (ZEAMX; 20 g/ha, Table F1b) | post-emergence activity against ZEAMX (ZEAMX; 5 g/ha, Table F1a) | further results
Cn1c(C(F)(F)F)cc(=O)n(-c2cc(C3=NOC4(CCN(Cc5cccc(F)c5F)C4=O)C3)c(Cl)cc2F)c1=O (racemic) [Compound I-33] | 100% | 100% | 20% | 20% | 100% | 100% | 100% | 100% | 100% | 100% | 100% | 100% | 100% | 100% | 100% | – | – | post-emergence activity against POLCO (POLCO): 100%; post-emergence activity against MATIN (MATIN [3]; 5 g/ha, Table E4a): 90%
Cn1c(C(F)(F)F)cc(=O)n(-c2cc(C3=NOC4(CCN(Cc5ccccc5Cl)C4=O)C3)c(Cl)cc2F)c1=O (racemic) [Compound I-30] | 100% | 100% | 20% | 20% | 100% | 100% | 100% | 100% | 100% | 100% | 100% | 100% | 100% | 90% | 100% | 20% | – | –
Cn1c(C(F)(F)F)cc(=O)n(-c2cc(C3=NOC4(CCCN(Cc5c(F)cccc5F)C4=O)C3)c(Cl)cc2F)c1=O (racemic) [Compound I-6] | 100% | 100% | 20% | – | 80% | 100% | – | 100% | 100% | 100% | 100% | 100% | 100% | 80% | 80% | 10% | 10% | –
COc1ncccc1C1=NOC2(CCN(Cc3cccc(F)c3F)C2=O)C1 (racemic) [Compound I-42] | – | – | – | – | – | – | – | – | – | – | – | – | – | – | – | – | – | post-emergence activity at 320g/ha against MATIN in % (MATIN [6]; 320 g/ha): 100%; post-emergence activity at 1280g/ha against MATIN in % (MATIN [6]; 1280 g/ha): 100%; post-emergence activity at 320g/ha against AMARE in % (AMARE [7]; 320 g/ha): 90%; post-emergence activity at 1280g/ha against AMARE in % (AMARE [7]; 1280 g/ha): 90%; post-emergence activity at 320g/ha against ABUTH in % (ABUTH [8]): 90%; pre-emergence activity at 1280g/ha against ECHCG in % (ECHCG [9]): 90%; post-emergence activity at 1280g/ha against VERPE in % (VERPE [10]): 90%; post-emergence activity at 1280g/ha against KCHSC in % (KCHSC): 90%; pre-emergence activity at 1280g/ha against STEME in % (STEME [11]): 90%; post-emergence activity at 320g/ha against STEME in % (STEME [12]; 320 g/ha): 100%; post-emergence activity at 1280g/ha against STEME in % (STEME [12]; 1280 g/ha): 100%; pre-emergence activity at 1280g/ha against AMARE in % (AMARE [13]): 90%
Cn1c(C(F)(F)F)cc(=O)n(-c2cc(C3=NOC4(CCN(Cc5ccccc5F)C4=O)C3)c(Cl)cc2F)c1=O (racemic) [Compound I-28] | 80% | 100% | 20% | – | 100% | 100% | 100% | 100% | 100% | 100% | 100% | 100% | 100% | 100% | 100% | 20% | 20% | post-emergence activity against SETVI (SETVI; 5 g/ha, Table E7a): 80%
